Assay results taken from patent publication US12486269B2 (Aconcagua Bio, Inc., priority 2024, dated 2025).

Legend:
[1] = target: T1, COS-7/AMY3 (human calcitonin receptor (CTR) and RAMP3) (Homo sapiens, UniProt O60896+P30988); experiment: Amylin Receptor cAMP Assay II; type: cell-based; settings: values marked **: Amylin Receptor cAMP Assay II; COS-7/AMY3 cells, cAMP dynamic 2 kit, 30 min; read-out: Amylin Receptor cAMP Stimulation Activity: EC50
T1 construct: expressed in transfected cells; host or cells: COS-7
In short: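 COS-7 cells stably co-expressing human CTR and RAMP3 (AMY3), 2000 cells/well in HBSS with 20 mM HEPES, 0.5 mM IBMX, 0.1% casein, stimulated with compound for 30 min at 37 °C. cAMP measured by HTRF (665/615 nm), activity normalized between vehicle and maximal control.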

[2] = target: T2, human calcitonin receptor (CTR) (Homo sapiens, UniProt P30988); experiment: Calcitonin Receptor (CTR) cAMP Assay; type: cell-based; settings: COS7-human CTR Clone #2 stable cell line, cAMP dynamic 2 kit, 30 min; read-out: Calcitonin Receptor cAMP Stimulation Activity: EC50
T2 construct: expressed in transfected cells; host or cells: COS-7 (COS7-human CTR Clone #2)
T2 sequence (P30988 25-474): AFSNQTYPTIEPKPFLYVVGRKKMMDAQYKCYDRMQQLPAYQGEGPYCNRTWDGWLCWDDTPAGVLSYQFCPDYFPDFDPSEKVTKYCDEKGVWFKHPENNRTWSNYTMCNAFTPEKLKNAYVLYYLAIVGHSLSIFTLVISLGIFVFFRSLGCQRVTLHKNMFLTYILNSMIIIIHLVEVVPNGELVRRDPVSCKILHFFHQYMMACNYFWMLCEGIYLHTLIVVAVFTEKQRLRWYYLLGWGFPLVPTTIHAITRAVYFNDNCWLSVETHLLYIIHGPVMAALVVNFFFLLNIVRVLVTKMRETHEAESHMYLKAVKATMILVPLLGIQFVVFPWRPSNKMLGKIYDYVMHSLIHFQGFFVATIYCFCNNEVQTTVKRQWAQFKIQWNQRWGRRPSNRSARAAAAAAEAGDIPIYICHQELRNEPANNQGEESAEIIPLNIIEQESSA
In short: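 COS-7 cells stably expressing human CTR (2000 cells/well) were incubated 30 min at 37 °C with 4-fold serially diluted compound in HBSS/20 mM HEPES/0.5 mM IBMX/0.1% casein. cAMP was detected by HTRF (665/615 nm) after 1 h at RT. % activity was normalised to vehicle and positive controls.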

T1 sequence (O60896 24-148, one chain of several): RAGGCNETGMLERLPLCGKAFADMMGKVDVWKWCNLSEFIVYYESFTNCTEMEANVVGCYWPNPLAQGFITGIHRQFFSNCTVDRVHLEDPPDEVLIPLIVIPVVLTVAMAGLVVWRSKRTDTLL

| Compound | EC50 [1] | EC50 [2] |
| --- | --- | --- |
| C[C@@H](Nc1nccc2cc(-c3c4c(nc(CCc5ccc(F)cc5)c3-c3n[nH]c(=O)o3)[C@@H]3CCCN3C4=O)sc12)c1ccc(F)c(F)c1 [Compound 227, 5-((S)-4-(7-(((R)-1-(3,4-difluorophenyl)ethyl)amino)thieno[2,3-c]pyridin-2-yl)-2-(4-fluorophenethyl)-5-oxo-7,8,9,9a-tetrahydro-5H-pyrido[2,3-a]pyrrolizin-3-yl)-1,3,4-oxadiazol-2(3H)-one] | 33.3 nM | 1.67 nM |
| C[C@@H](Nc1nccc2cc(-c3c4c(nc(CCc5ccc(F)cc5)c3-c3n[nH]c(=O)o3)[C@@H]3CCCN3C4=O)sc12)c1ccc(F)cc1F [Compound 228, 5-((S)-4-(7-(((R)-1-(2,4-difluorophenyl)ethyl)amino)thieno[2,3-c]pyridin-2-yl)-2-(4-fluorophenethyl)-5-oxo-7,8,9,9a-tetrahydro-5H-pyrido[2,3-a]pyrrolizin-3-yl)-1,3,4-oxadiazol-2(3H)-one] | 3030 nM | 25.7 nM |
| COc1cccc2c1CC[C@H]2Nc1nccc2cc(-c3c4c(nc(CCc5ccc(F)cc5)c3-c3n[nH]c(=O)o3)[C@H]3CCCN3C4=O)sc12 [Compound 229, 5-((R)-2-(4-fluorophenethyl)-4-(7-(((R)-4-methoxy-2,3-dihydro-1H-inden-1-yl)amino)thieno[2,3-c]pyridin-2-yl)-5-oxo-7,8,9,9a-tetrahydro-5H-pyrido[2,3-a]pyrrolizin-3-yl)-1,3,4-oxadiazol-2(3H)-one] | 48.4 nM | 13.4 nM |
| COc1cccc2c1CC[C@H]2Nc1nccc2cc(-c3c4c(nc(CCc5ccc(F)cc5)c3-c3n[nH]c(=O)o3)[C@@H]3CCCN3C4=O)sc12 [Compound 230, 5-((S)-2-(4-fluorophenethyl)-4-(7-(((R)-4-methoxy-2,3-dihydro-1H-inden-1-yl)amino)thieno[2,3-c]pyridin-2-yl)-5-oxo-7,8,9,9a-tetrahydro-5H-pyrido[2,3-a]pyrrolizin-3-yl)-1,3,4-oxadiazol-2(3H)-one] | 17.4 nM | 0.51 nM |
| N#Cc1ccc(Cn2ccc3cc(-c4c5c(nc(CCC67CCC(CC6)OC7)c4-c4n[nH]c(=O)o4)[C@@H]4CCCN4C5=O)cnc32)c(F)c1 [Compound 231, (S)-4-((5-(2-(2-(2-oxabicyclo[2.2.2]octan-4-yl)ethyl)-5-oxo-3-(5-oxo-4,5-dihydro-1,3,4-oxadiazol-2-yl)-7,8,9,9a-tetrahydro-5H-pyrido[2,3-a]pyrrolizin-4-yl)-1H-pyrrolo[2,3-b]pyridin-1-yl)methyl)-3-fluorobenzonitrile] | 15300 nM | 171 nM |
| O=C1c2c(nc(CCC34CCC(CC3)OC4)c(-c3n[nH]c(=O)o3)c2-c2cnc3c(ccn3Cc3ccc(F)cn3)c2)[C@@H]2CCCN12 [Compound 232, (S)-5-(2-(2-(2-oxabicyclo[2.2.2]octan-4-yl)ethyl)-4-(1-((5-fluoropyridin-2-yl)methyl)-1H-pyrrolo[2,3-b]pyridin-5-yl)-5-oxo-7,8,9,9a-tetrahydro-5H-pyrido[2,3-a]pyrrolizin-3-yl)-1,3,4-oxadiazol-2(3H)-one] | 12000 nM | 412 nM |
| O=C1c2c(nc(CCC34CCC(CC3)OC4)c(-c3n[nH]c(=O)o3)c2-c2cnc3c(ccn3Cc3ncc(Cl)cc3F)c2)[C@@H]2CCCN12 [Compound 233, (S)-5-(2-(2-(2-oxabicyclo[2.2.2]octan-4-yl)ethyl)-4-(1-((5-chloro-3-fluoropyridin-2-yl)methyl)-1H-pyrrolo[2,3-b]pyridin-5-yl)-5-oxo-7,8,9,9a-tetrahydro-5H-pyrido[2,3-a]pyrrolizin-3-yl)-1,3,4-oxadiazol-2(3H)-one] | 1820 nM | 36.3 nM |
| COc1cccc2c1CC[C@H]2Nc1nccc2cc(-c3c4c(nc(CCc5ccc(F)cc5)c3-c3n[nH]c(=O)o3)[C@H]3COCCN3C4=O)sc12 [Compound 234, (S)-2-(4-fluorophenethyl)-4-(7-(((R)-4-methoxy-2,3-dihydro-1H-inden-1-yl)amino)thieno[2,3-c]pyridin-2-yl)-3-(5-oxo-4,5-dihydro-1,3,4-oxadiazol-2-yl)-7,8,10,10a-tetrahydro-5H-pyrido[2′,3′:3,4]pyrrolo[2,1-c][1,4]oxazin-5-one] | 48.1 nM | 1.83 nM |
| COc1cccc2c1CC[C@H]2Nc1nccc2cc(-c3c4c(nc(CCc5ccc(F)cc5)c3-c3n[nH]c(=O)o3)[C@@H]3COCCN3C4=O)sc12 [Compound 235, (R)-2-(4-fluorophenethyl)-4-(7-(((R)-4-methoxy-2,3-dihydro-1H-inden-1-yl)amino)thieno[2,3-c]pyridin-2-yl)-3-(5-oxo-4,5-dihydro-1,3,4-oxadiazol-2-yl)-7,8,10,10a-tetrahydro-5H-pyrido[2′,3′:3,4]pyrrolo[2,1-c][1,4]oxazin-5-one] | 18.1 nM | 0.236 nM |
| COc1cccc2c1CC[C@H]2Nc1nccc2cc(-c3c(-c4n[nH]c(=O)o4)c(CCc4ccc(F)cc4)nc4c3S(=O)(=O)C[C@@H]4C(C)C)sc12 [Compound 236, 5-((R)-5-(4-fluorophenethyl)-3-isopropyl-7-(7-(((R)-4-methoxy-2,3-dihydro-1H-inden-1-yl)amino)thieno[2,3-c]pyridin-2-yl)-1,1-dioxido-2,3-dihydrothieno[3,2-b]pyridin-6-yl)-1,3,4-oxadiazol-2(3H)-one] | 128 nM | 177 nM |
| COc1cccc2c1CC[C@H]2Nc1nccc2cc(-c3c(-c4n[nH]c(=O)o4)c(CCc4ccc(F)cc4)nc4c3S(=O)(=O)C[C@H]4C(C)C)sc12 [Compound 237, 5-((S)-5-(4-fluorophenethyl)-3-isopropyl-7-(7-(((R)-4-methoxy-2,3-dihydro-1H-inden-1-yl)amino)thieno[2,3-c]pyridin-2-yl)-1,1-dioxido-2,3-dihydrothieno[3,2-b]pyridin-6-yl)-1,3,4-oxadiazol-2(3H)-one] | 18.5 nM | 0.591 nM |
| N#Cc1ccc(Cn2c(=O)oc3cc(-c4c(-c5n[nH]c(=O)o5)c(CCc5ccc(F)cc5)nc5c4S(=O)(=O)CC54CC4)ccc32)nc1 [Compound 238, 6-((6-(5′-(4-fluorophenethyl)-1′,1′-dioxido-6′-(5-oxo-4,5-dihydro-1,3,4-oxadiazol-2-yl)-2′H-spiro[cyclopropane-1,3′-thieno[3,2-b]pyridin]-7′-yl)-2-oxobenzo[d]oxazol-3(2H)-yl)methyl)nicotinonitrile] | 75.7 nM | 5.12 nM |
| COc1cc(Cl)cc2c1CC[C@H]2Nc1nccc2cc(-c3c4c(nc(CCc5ccc(F)cc5)c3-c3n[nH]c(=O)o3)[C@@H]3CCCN3C4=O)sc12 [Compound 239, 5-((S)-4-(7-(((R)-6-chloro-4-methoxy-2,3-dihydro-1H-inden-1-yl)amino)thieno[2,3-c]pyridin-2-yl)-2-(4-fluorophenethyl)-5-oxo-7,8,9,9a-tetrahydro-5H-pyrido[2,3-a]pyrrolizin-3-yl)-1,3,4-oxadiazol-2(3H)-one] | 23.4 nM | 0.975 nM |
| COc1cccc2c1CC[C@H]2N1Cc2cc(-c3c4c(nc(CCc5ccc(F)cc5)c3-c3n[nH]c(=O)o3)C35CC(CN3C4=O)C5)ccc2C1=O [Compound 240, (R)-5-(2-(4-fluorophenethyl)-4-(2-(4-methoxy-2,3-dihydro-1H-inden-1-yl)-1-oxoisoindolin-5-yl)-5-oxo-8,9-dihydro-5H,7H-8,9a-methanopyrido[2,3-a]pyrrolizin-3-yl)-1,3,4-oxadiazol-2(3H)-one] | 182 nM | 8.9 nM |
| COc1cccc2c1CC[C@H]2Nc1nccc2cc(-c3c4c(nc(CCc5ccn6ccnc6c5)c3-c3n[nH]c(=O)o3)[C@@H]3CCCN3C4=O)sc12 [Compound 241, 5-((S)-2-(2-(imidazo[1,2-a]pyridin-7-yl)ethyl)-4-(7-(((R)-4-methoxy-2,3-dihydro-1H-inden-1-yl)amino)thieno[2,3-c]pyridin-2-yl)-5-oxo-7,8,9,9a-tetrahydro-5H-pyrido[2,3-a]pyrrolizin-3-yl)-1,3,4-oxadiazol-2(3H)-one] | 33.5 nM | 1.72 nM |
| COc1cccc2c1CC[C@H]2Nc1nccc2cc(-c3c4c(nc(CCc5ccc(Cl)cc5)c3-c3n[nH]c(=O)o3)[C@@H]3CCCN3C4=O)sc12 [Compound 242, 5-((S)-2-(4-chlorophenethyl)-4-(7-(((R)-4-methoxy-2,3-dihydro-1H-inden-1-yl)amino)thieno[2,3-c]pyridin-2-yl)-5-oxo-7,8,9,9a-tetrahydro-5H-pyrido[2,3-a]pyrrolizin-3-yl)-1,3,4-oxadiazol-2(3H)-one] | 18.4 nM | 0.668 nM |
